Laboratory results taken from US20230416852A1, “METHODS FOR IDENTIFYING COMPOSITIONS FOR INHIBITING VIRAL INFECTIVITY” (priority 2020, published 2023).
Read-outs that look alike come from different tables or passages of the source.

Key:
[1] = target: T1, Vif function of inhibiting A3G CDA (Human immunodeficiency virus type 1 group M subtype B, UniProt P69723); assay: biochemical; assay type: biochemical, HIV-1; conditions: for hit for restoring A3G CDA in the presence of Vif: 10 μM compounds, 20% cutoff stringency, i.e. 20% increase in A3G CDA versus controls, positive control set as 1
Description: The A3G CDA edits the CCC sequence to predominantly to a CCU sequence. To specifically measure the C to U rate, three reverse primers R1, R2, and R3 were designed in the initial study.
Using the qPCR-based screening assay described in Example 1, the NCI Diversity Set VI, NCI Mech Set V, and NIH SMR were screened against Vif function of inhibiting A3G. The NCI Diversity Set VI was derived from almost 140,000 compounds available for distribution in the library of the NCI Developmental Therapeutics Program. […] The qPCR-based CDA assay was used to screen the libraries in 96-well plates with negative controls (no A3G and Vif), positive control (no Vif), and 10 μM compounds. Hits were selected at 20% cutoff stringency (above 0.2), i.e., 20% increase in A3G CDA versus controls. Any compounds that restored A3G activity by 20% or more were selected. The positive control was set as 1.

[2] = target: T1, Vif function of inhibiting A3G CDA; assay type: biochemical, HIV-1; conditions: dose-response retest in qPCR-based CDA assay
[3] = target: T1, Vif function of inhibiting A3G CDA; assay type: biochemical, HIV-1
Description: This assay detects C to U mutation using a highly specific Stu I restriction enzyme digestion method. FIG. 4A is a schematic diagram of the PCR and restriction digestion-based CDA assay. CCC-150 is converted to CCU-150 under the enzymatic activity of A3G. […] In the presence of Vif, Vif will inhibit A3G enzymatic activity, so that reduced or no CCU-150 will be produced. Therefore, less or no Stu I cutting sites will form, and no digestion will occur.
The CDA products were subjected to PCR followed by Stu I digestion. The digestion products were applied to a 10% polyacrylamide gel for separation. SYBR Gold was used to visualize the bands. L-Cefixime refers to Compound I identified above.

HIV IIIB virus = assay: MAGI assay of HIV infectivity in TZM-bl cells; assay type: cell-based, HIV-1; conditions: Human immunodeficiency virus 1, IIIB, 48 h, read-out: IC50 antiviral activity
Description: MAGI assay is a classical method for measuring HIV infectivity (Platt E J et at J Virol 72:2855-2864 (1998)). The assay involves HIV infecting a reporter cell line, the TZM-bl cell line (Platt E J et at J Virol 72:2855-2864 (1998); Derdeyn C A et al. J Virol 74:8358-8367 (2000); Wei X et al. Antimicrob Agents Chemother 46:1896-1905 (2002)). The TZM-bl cell line is a Hela cell derivative that expresses CD4, rendering the cells permissive to HIV-1 infection. These cells also contain an integrated LTR-luciferase and β-galactosidase reporter genes, resulting in expression of firefly luciferase and β-galactosidase protein following HIV-1 integration and subsequent expression of the viral transactivator, Tat.
300 ng of p24 content of HIV IIIB virus was used to infect TZM-bl cells. Different doses of Compound II (redoxal) and C5 were used to treat the infected cells. DMSO treatment was used as a control. Two days post-infection, cells were fixed and β-galactosidase was stained to visualize the infected cells.

[4] = tested on: A3G expression, Gag expression and processing; assay: Western blot of A3G stability and Gag in transfected 293T cells; assay type: cell-based; conditions: 5 μM
Experimental: (§1) An A3G expression vector was co-transfected with Vif, or with the empty vector as control. The A3G expression vector was also co-transfected with either a wild-type viral construct HXB2, Vif deficient viral construct HXB2ΔVif, or pcDNA3.1 (as a control) into 293T cells. Immediately following transfection, 5 μM Compound II (redoxal) was used to treat the 293T cells. After 48 hours post-transfection, culture supernatants were subjected to ultracentrifuge to pellet down the virus. Viral lysates were analyzed by Western blot.

HIV in PBMC = conditions: previous report, Pery E et al. Virology 2015; cited from earlier work
HIV IIIB replication = HIV IIIB replication in A3G-expressing CEM-GFP cells; assay type: cell-based, HIV-1; conditions: Human immunodeficiency virus 1, IIIB, FIG. 6A, read-out: IC50 inhibiting HIV IIIB replication
Experimental: (§2) As discussed above, Vif functions as an inhibitor to A3G antiviral function. […] The A3G-dependent antiviral effects of the hits were tested using CD4+T, CEM-GFP, and CEM SS cell lines. […] The Vif specific inhibitor should show high anti-HIV potency in CEM-GFP cells (and not in CEM SS cells). The CEM-GFP cell line expresses GFP upon HIV infection driven by HIV NL4-3 LTR. It can be used to measure HIV replication (Gervaix A, et at Proc Natl Acad Sci USA. 1997; 94 (9):4653-8.)

HIV-1 NL4-3-GFP = HIV-1 NL4-3-GFP infection of CEM SS cells (no A3G); assay type: cell-based; conditions: CEM SS cells compared to CEM-GFP cells, FIG. 6B
Experimental: as §2
In FIG. 6B, HIV-1 NL4-3-GFP was used to infect CEM SS cell line.

[5] = tested on: Vif induced A3G degradation; assay: Western blot of Vif induced A3G degradation in transfected 293T cells; assay type: cell-based; conditions: 5 μM, FIG. 7A
Experimental: as §1, with “quinobene” for “Compound II (redoxal)”

A3G viral encapsidation = assay: Western blot of A3G viral encapsidation (viral lysates from 293T cells); assay type: cell-based; conditions: 5 μM, FIG. 7B
Experimental: as §1, with “quinobene” for “Compound II (redoxal)”

[6] = tested on: A3G related G to A hypermutation in HIV-1 viral cDNA; assay: G to A hypermutation analysis of HIV-1 viral cDNA by next-generation sequencing in SupT1 cells; assay type: cell-based; conditions: 1 μM; for average G to A hypermutation rate for each position: average over positions; for average G to A hypermutation rate for each position / G to A hypermutation rate / total G to A hypermutation rate: 6 hours, SupT1, HIV IIIB; for total G to A hypermutation rate: total over all positions
Experimental: The hallmark of A3G antiviral function is to induce G to A hypermutation in HIV cDNA. Therefore, it is very important to evaluate whether quinobene restores A3G's capability to induce G to A hypermutation rates in HIV cDNA. To do this, SupT1 cells were infected with HIV IIIB (350 ng p24)+DMSO or HVI IIIB (350 ng p24)+1 μM quinobene for 6 hours. After infection, DNA was isolated using a DNeasy Blood and Tissue DNA isolation kit (QIAGEN). A 199-bp DNA fragment covering a portion of LTR of HIV-1 was amplified with Taq DNA polymerase using the primers IIIB-F (5′-[…]) and HIV-1-R (5′-[…]). The PCR products were purified by QIAquick PCR Purification Kit (Qiagen) and sent to GENEWIZ, Inc (South Plainfield, NJ) for G to A hypermutation analysis using their Amplicon-EZ service, a next-generation sequencing-based sequencing service, allowed detection of low-frequency variants quantitatively. The G to A hypermutation rate was calculated using CLC Genomic Workbench.

CEM cells = assay: Presto Blue Cytotoxicity Assay; conditions: read-out: IC50 cytotoxicity, FIG. 6C
Description: In this assay, live cells show 586 nm fluoresce red. The higher the fluorescence, the more viable the cells are. Therefore, 100% cell death should result in no fluorescence.

T1 sequence (P69723 whole entry): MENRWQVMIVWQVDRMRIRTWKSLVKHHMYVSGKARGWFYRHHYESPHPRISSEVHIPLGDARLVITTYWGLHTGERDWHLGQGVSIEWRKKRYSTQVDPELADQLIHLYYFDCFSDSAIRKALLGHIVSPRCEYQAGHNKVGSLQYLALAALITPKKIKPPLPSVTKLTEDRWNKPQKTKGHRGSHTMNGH

## C[C@@H]1C/C=C/C=C/C=C/C=C/[C@H](O[C@@H]2O[C@H](C)[C@@H](O)[C@H](N)[C@@H]2O)C[C@@H]2O[C@](O)(C[C@@H](O)C[C@H]3O[C@@H]3/C=C/C(=O)O1)C[C@H](O)[C@H]2C(=O)O [IV, natamycin, reference compound]
[1]
  hit for restoring A3G CDA in the presence of Vif: hits
[2]
  activity in retest: did not show any activity

## COc1cc(-c2ccc(Nc3ccccc3C(=O)O)c(OC)c2)ccc1Nc1ccccc1C(=O)O [Compound II, redoxal]
[1]
  EC50: < 12.5 µM
  hit for restoring A3G CDA in the presence of Vif: hits
[3]; 50 μM
  restoration of Stu I digestion product: dramatically restored the digestion product
HIV IIIB virus
  IC50: < 4 µM
[4]; FIG. 8
  A3G expression: enhances A3G expression independent of Vif
  Gag processing patterns: may alter Gag processing patterns
  overall Gag expression: reduces overall Gag expression
[4]; FIG. 8, listed as redoxal
  overall Gag expression: reduced overall Gag expression
HIV in PBMC
  IC50: 0.6 to 3 µM

## O=c1c2ccccc2ncn1-c1ccc(Cl)cc1 [Compound V]
[1]
  hit for restoring A3G CDA in the presence of Vif: hits

## Cn1c(SCc2ccccn2)nc2c1c(=O)[nH]c(=O)n2C [Compound VII]
[1]
  hit for restoring A3G CDA in the presence of Vif: hits

## O=S(=O)(O)c1cc(N=Nc2cc(S(=O)(=O)O)c3cccnc3c2O)ccc1C=Cc1ccc(N=Nc2cc(S(=O)(=O)O)c3cccnc3c2O)cc1S(=O)(=O)O [Compound IX, quinobene]
[1]
  hit for restoring A3G CDA in the presence of Vif: hits and hit
[3]; 5 uM
  restoration of Stu I digestion product: dramatically restored the digestion product
HIV IIIB replication
  IC50: < 0.75 µM
HIV-1 NL4-3-GFP
  antiviral function: lost its antiviral function
[5]
  influence on Vif induced A3G degradation: minimal to no influence
A3G viral encapsidation
  effects on A3G viral encapsidation: minimal to no effects
[6]; 22 out of 26 positions versus untreated
  positions showing G to A hypermutation rate increases: 84.6%
[6]; listed as Quino
  average G to A hypermutation rate for each position: 2.32%
  total G to A hypermutation rate: 58.08%
[6]; listed as quinobene
  average G to A hypermutation rate for each position: 2.31%
  total G to A hypermutation rate: 58%
[6]; position 22
  G to A hypermutation rate: 5.51%
[6]; position 23
  G to A hypermutation rate: 0.27%
[6]; position 35
  G to A hypermutation rate: 1.92%
[6]; position 36
  G to A hypermutation rate: 3.87%
[6]; position 37
  G to A hypermutation rate: 0.43%
[6]; position 47
  G to A hypermutation rate: 1.84%
[6]; position 48
  G to A hypermutation rate: 0.38%
[6]; position 51
  G to A hypermutation rate: 0%
[6]; position 56
  G to A hypermutation rate: 0.53%
[6]; position 61
  G to A hypermutation rate: 6.47%
[6]; position 62
  G to A hypermutation rate: 0%
[6]; position 65
  G to A hypermutation rate: 5.65%
[6]; position 68
  G to A hypermutation rate: 0.38%
[6]; position 71
  G to A hypermutation rate: 2.13%
[6]; position 72
  G to A hypermutation rate: 2.1%
[6]; position 73
  G to A hypermutation rate: 0.28%
[6]; position 78
  G to A hypermutation rate: 0.28%
[6]; position 126
  G to A hypermutation rate: 8.57%
[6]; position 127
  G to A hypermutation rate: 0.33%
[6]; position 136
  G to A hypermutation rate: 1.39%
[6]; position 157
  G to A hypermutation rate: 8.43%
[6]; position 158
  G to A hypermutation rate: 0.19%
[6]; position 168
  G to A hypermutation rate: 0.6%
[6]; position 177
  G to A hypermutation rate: 4.16%
[6]; position 178
  G to A hypermutation rate: 2.37%
CEM cells
  IC50: ~50 µM

## C=CC1=C(C(=O)O)N2C(=O)[C@@H](NC(=O)/C(=N\OCC(=O)O)c3csc(N)n3)[C@H]2SC1 [Compound I, cefixime, reference compound]
[1]
  EC50: > 500 µM
  hit for restoring A3G CDA in the presence of Vif: hits
[3]; 10 μM
  restoration of Stu I digestion product: dramatically restored the digestion product

## Oc1ccccc1-c1nc2c3ccccc3c3ccccc3c2[nH]1 [Compound VI]
[1]
  hit for restoring A3G CDA in the presence of Vif: hits

## O=c1c(-c2ccc(O)cc2)coc2cc(O)cc(O)c12 [III, genistein]
[1]
  hit for restoring A3G CDA in the presence of Vif: hits
[2]
  activity in retest: did not show any activity
